Article PMC8050214 (Scientific Reports, 2021)

Columns and labels:
[1] = molecular target: T1, hD2LR (human dopamine D2 receptor, long splice variant) (Homo sapiens, UniProt P14416); assay: BRET G protein (GαoA) activation, Gβγ-Venus / masGRK3ct-NLuc release; format: cell-based
T1 construct: gene DRD2; full-length long isoform, stably expressed in Flp-In HEK293 cells (G protein BRET assay); C351I G alpha subunits co-transfected as sensors; hD2LR-NLuc fusion with GRK2-Venus in the GRK2 recruitment assay (SCH23390 row)

[2] = molecular target: T1, hD2LR (human dopamine D2 receptor, long splice variant); assay: Schild analysis, BRET GRK2 recruitment (hD2LR-NLuc / GRK2-Venus); format: cell-based; conditions: read-out: pA2 (converted)

SMILES | EC50 [1] [nM] | Kb [2] [nM]
CC(C)C[C@H]1C(=O)N2CCC[C@H]2[C@]2(O)O[C@](NC(=O)[C@@H]3C=C4c5cccc6[nH]c(Br)c(c56)C[C@H]4N(C)C3)(C(C)C)C(=O)N12 [Bromocriptine] | 14.5 | –
C=CCN1C[C@H](C(=O)N(CCCN(C)C)C(=O)NCC)C[C@@H]2c3cccc4[nH]cc(c34)C[C@H]21 [Cabergoline] | 1.58 | –
Oc1c(CN2CCN(c3ccccn3)CC2)cc(Cl)c2cccnc12 [MLS1547] | 209 | –
CCCN(CCC)CCc1cccc2c1CC(=O)N2 [Ropinirole] | 2.82 | –

Next, values leading:

EC50 [1] [nM] | Kb [2] [nM] | SMILES
4.37 | – | CCN(CC)C(=O)N[C@H]1C[C@@H]2c3cccc4[nH]cc(c34)C[C@H]2N(C)C1 [Terguride]
282 | – | Clc1cccc(C2CCN(CCCOc3ccc4scnc4c3)CC2)c1Cl [UNC9994]
– | 525 | CN1CCc2cc(Cl)c(O)cc2[C@@H](c2ccccc2)C1 [SCH23390]
